Test results published in ChEMBL document CHEMBL1201862, “PubChem BioAssay data set” (2004).
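48-hour exposure; five concentrations; linearly interpolated endpoints. GI50 marks 50% less growth.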 Active and inactive are the calls of the source. Cut-off read from the data, not from the text of the source: active = GI50 up to about 1.1 µM and inactive = higher.

Experiments:
Assay in all cases: growth of human tumour cells (NCI), 48 h
[1] = test system: M14
[2] = test system: KM-20L2
[3] = test system: OVCAR-5
[4] = test system: OVCAR-4
[5] = test system: DMS-273
[6] = test system: OVCAR-8
[7] = test system: TK-10
[8] = test system: HL-60
[9] = test system: NCI-H23
[10] = test system: HCT-15
[11] = test system: KM12
[12] = test system: COLO 205
[13] = test system: Malme-3M
[14] = test system: RPMI-8226
[15] = test system: SF-268
[16] = test system: UACC-62
[17] = test system: OVCAR-3
[18] = test system: UACC-257
[19] = test system: NCI-H226
[20] = test system: SK-MEL-28
[21] = test system: SR
[22] = test system: SNB-75
[23] = test system: CAKI-1
[24] = test system: HOP-62
[25] = test system: HOP-92
[26] = test system: LOX IMVI
[27] = test system: XF498
[28] = test system: K562
[29] = test system: NCI-H460
[30] = test system: SF-539
[31] = test system: SNB-78
[32] = test system: HCT-116
[33] = test system: U-251
[34] = test system: DLD-1
[35] = test system: HCC 2998
[36] = test system: MOLT-4
[37] = test system: SK-OV-3
[38] = test system: 786-0
[39] = test system: LXFL 529
[40] = test system: UO-31
[41] = test system: A549
[42] = test system: HT-29
[43] = test system: SK-MEL-2
[44] = test system: IGROV-1
[45] = test system: SN12C
[46] = test system: ACHN
[47] = test system: NCI-H522
[48] = test system: SNB-19
[49] = test system: SF-295
[50] = test system: SW-620
[51] = test system: EKVX
[52] = test system: SK-MEL-5
[53] = test system: RXF 393
[54] = test system: HOP-18
[55] = test system: CCRF-CEM
[56] = test system: A498
[57] = test system: DMS-114

C=CCCC(C)N(C(=O)OC(C)(C)C)S(=O)(=O)c1ccc(C)cc1 (centres undefined)
GI50 [1]: > 100 µM (inactive) | GI50 [2]: > 100 µM (inactive) | GI50 [3]: > 100 µM (inactive) | GI50 [4]: > 100 µM (inactive) | GI50 [5]: > 100 µM (inactive) | GI50 [6]: > 100 µM (inactive) | GI50 [7]: > 100 µM (inactive) | GI50 [8]: > 100 µM (inactive) | GI50 [9]: > 100 µM (inactive) | GI50 [10]: > 100 µM | GI50 [11]: > 100 µM (inactive) | GI50 [12]: > 100 µM (inactive) | GI50 [13]: > 100 µM (inactive) | GI50 [14]: > 100 µM (inactive) | GI50 [15]: > 100 µM (inactive) | GI50 [16]: 77.4 µM (inactive) | GI50 [17]: > 100 µM (inactive) | GI50 [18]: > 100 µM (inactive) | GI50 [19]: > 100 µM (inactive) | GI50 [20]: > 100 µM (inactive) | GI50 [21]: > 100 µM (inactive) | GI50 [22]: > 100 µM (inactive) | GI50 [23]: > 100 µM (inactive) | GI50 [24]: > 100 µM (inactive) | GI50 [25]: 40.2 µM (inactive) | GI50 [26]: > 100 µM (inactive) | GI50 [27]: > 100 µM (inactive) | GI50 [28]: > 100 µM (inactive) | GI50 [29]: > 100 µM (inactive) | GI50 [30]: > 100 µM (inactive) | GI50 [31]: > 100 µM (inactive) | GI50 [32]: > 100 µM (inactive) | GI50 [33]: > 100 µM (inactive) | GI50 [34]: > 100 µM (inactive) | GI50 [35]: > 100 µM (inactive) | GI50 [36]: 97.1 µM (inactive) | GI50 [37]: > 100 µM (inactive) | GI50 [38]: > 100 µM (inactive) | GI50 [39]: > 100 µM (inactive) | GI50 [40]: > 100 µM (inactive) | GI50 [41]: > 100 µM (inactive) | GI50 [42]: > 100 µM (inactive) | GI50 [43]: > 100 µM (inactive) | GI50 [44]: > 100 µM (inactive) | GI50 [45]: > 100 µM (inactive) | GI50 [46]: > 100 µM (inactive) | GI50 [47]: > 100 µM (inactive) | GI50 [48]: > 100 µM (inactive) | GI50 [49]: > 100 µM (inactive) | GI50 [50]: > 100 µM (inactive)

O=C1C(=O)C2(CC1S(=O)(=O)c1ccccc1)c1ccccc1-c1ccccc12 (centres undefined)
GI50 [1]: 13.9 µM (inactive) | GI50 [2]: 44 µM (inactive) | GI50 [51]: 28.8 µM (inactive) | GI50 [3]: 23 µM (inactive) | GI50 [4]: 48.9 µM (inactive) | GI50 [5]: 19.5 µM (inactive) | GI50 [52]: 14.6 µM (inactive) | GI50 [6]: 17.9 µM (inactive) | GI50 [7]: 25.8 µM (inactive) | GI50 [8]: 27.9 µM (inactive) | GI50 [9]: 15.5 µM (inactive) | GI50 [10]: 16.7 µM | GI50 [11]: 19.2 µM (inactive) | GI50 [12]: 12.7 µM (inactive) | GI50 [13]: > 10 µM (inactive) | GI50 [14]: 26.4 µM (inactive) | GI50 [15]: 27.4 µM (inactive) | GI50 [16]: 16.6 µM (inactive) | GI50 [53]: 18.7 µM (inactive) | GI50 [17]: > 10 µM (inactive) | GI50 [18]: 17.8 µM (inactive) | GI50 [19]: 37.4 µM (inactive) | GI50 [20]: 19.7 µM (inactive) | GI50 [21]: 24 µM (inactive) | GI50 [22]: 37.3 µM (inactive) | GI50 [23]: 29 µM (inactive) | GI50 [24]: 21.1 µM (inactive) | GI50 [54]: > 10 µM (inactive) | GI50 [55]: 24.7 µM (inactive) | GI50 [26]: 18.5 µM (inactive) | GI50 [56]: 19.1 µM (inactive) | GI50 [57]: 22 µM (inactive) | GI50 [28]: 27.6 µM (inactive) | GI50 [29]: 18.6 µM (inactive) | GI50 [31]: 17.5 µM (inactive) | GI50 [32]: 17.3 µM (inactive) | GI50 [33]: 18.6 µM (inactive) | GI50 [34]: 24.8 µM (inactive) | GI50 [35]: 14.7 µM (inactive) | GI50 [36]: 20.4 µM (inactive) | GI50 [37]: 38.9 µM (inactive) | GI50 [38]: 26.6 µM (inactive) | GI50 [39]: 16.3 µM (inactive) | GI50 [40]: 19.7 µM (inactive) | GI50 [41]: 24.7 µM (inactive) | GI50 [42]: 27 µM (inactive) | GI50 [43]: 18.1 µM (inactive) | GI50 [44]: 23.1 µM (inactive) | GI50 [45]: 28.8 µM (inactive) | GI50 [46]: 28.6 µM (inactive) | GI50 [47]: 22.5 µM (inactive) | GI50 [48]: 20.6 µM (inactive) | GI50 [49]: 21.3 µM (inactive) | GI50 [50]: 34.6 µM (inactive)
